According to paper PMC10268255 (Proceedings of the National Academy of Sciences of the …, 2023):

Legend:
αVβ6 ectodomain = αVβ6 ectodomain (Homo sapiens, UniProt P06756+P18564); assay: Fluorescence polarization; type: binding; details: FP competition
αVβ8 ectodomain = αVβ8 ectodomain (Homo sapiens, UniProt P06756+P26012); assay: Fluorescence polarization; type: binding; details: ratio of FP KDs, αVβ8 vs αVβ6
integrin αVβ6 ectodomain [1] = molecular target: integrin αVβ6 ectodomain (UniProt P06756); assay: fluorescence polarisation
integrin αVβ8 ectodomain = integrin αVβ8 ectodomain (UniProt P06756 31-992; P26012 43-684); assay: fluorescence polarisation
integrin αVβ6 ectodomain [2] = molecular target: integrin αVβ6 ectodomain (UniProt P06756 31-992; P18564 22-709); assay: fluorescence polarisation

Ac-GTSTYTSGDQKTIKSTRKKNSGK-NH2 [23-mer]
Fold higher affinity for αVβ6 than the TGF-β2 9-mer (αVβ6 ectodomain): 20 fold | Fold lower affinity of αVβ8 compared to αVβ6 (αVβ8 ectodomain): 5,500 fold

human proTGF-β2 C24S, N140R, D5G (shaved) (natural protein)
fold higher affinity than the TGF-β2 9-mer (integrin αVβ6 ectodomain [1]): 170 fold

Ac-YTSGDQKTIKSTR-NH2 [13-mer]
Fold lower affinity of αVβ8 compared to αVβ6 (αVβ8 ectodomain): 8,100 fold

B1: TGF-β2 13-mer peptide Y259TSGDQKTIKSTR271 (peptide)
peptide: Ac-YTSGDQKTIKSTR-NH2
Kd (integrin αVβ8 ectodomain): 11.4 mM

B2: TGF-β2 13-mer peptide K265A (peptide, UniProt P61812 259-271, looked up)
peptide: Ac-YTSGDQATIKSTR-NH2
fold increase in affinity over the wild-type 13-mer (integrin αVβ6 ectodomain [2]): 6.3 fold
